{"source": "patent US10317409B2", "about": "“Glycosylation site-specific antibodies and anti-cancer compounds” (Detroit R&D, Inc., priority 2013, dated 2019)", "key": {"[1]": {"tested_on": "O-GlcNAcylated c-myc in MCF-7 cells", "assay": "Western blot of O-GlcNAcylated c-myc levels in MCF-7 cells", "type": "cell-based", "settings": "for O-GlcNAcylated c-myc level: MCF-7, 4 hr", "protocol": "MCF-7 breast cancer cells were treated for 24 hr with 1% DMSO, with an O-GlcNAcase inhibitor, streptozotocin (STZ), with N6-methyladenosine 5′-monophosphate (an O-GlcNAcase inhibitor discovered through by screening with the pseudofluorescent substrate 4-methylumbelliferol (4-MU)-GlcNAc (7)) or with media (control) (FIG. 5).\n(§1) O-GlcNAcase inhibitors, which increased O-GlcNAcylation levels of proteins by preventing cleavage of an O-GlcNAc moiety of Ser or Thr residues, were identified using the antibodies of the present invention. MCF-7 breast cancer cells (FIG. 6. Panel A, Lanes 1-4) and MCF10A normal breast cells (FIG. 6. Panel A, Lanes 5-8) were treated for 4 hr with 1% DMSO (FIG. 6, Panel A, Lanes 1 and 5), the O-GlcNAcase inhibitors acetazolamide (FIG. 6, Panel A, Lanes 2 and 6) and N6-methyladenosine 5′-monophosphate (FIG. 6, Panel A, Lanes […] and 7) or media (control) (FIG. 6, Panel A, Lanes 4 and 8). Western blot analysis (8-16% gel) was carried out with cell lysates (20 μg/lane) using antibodies for O-GlcNAcylated c-myc (Peptide #1-G, 5,000-fold diluted).\n(§2) Western blot analysis was carried out with 10% gel electrophoresis using nuclear lysates obtained from MCF-7 cells with antibodies for O-GlcNAcylated c-myc (Peptide #2-0). […] There was no increase in unmodified c-myc protein after ketoconazole treatment as verified with antibodies for unmodified c-myc (Peptide #2-N) by Western blot analysis.\nMCF-7 cells were treated for 4 hr with 1% DMSO (negative control) or 2 mM ketoconazole in DMSO and an O-GlcNAcylated c-myc band was detected using a second antibody for O-GlcNAcylated c-myc (Peptide #1-G)."}, "[2]": {"tested_on": "O-GlcNAcylated c-myc in MCF10A cells", "assay": "Western blot of O-GlcNAcylated c-myc levels in MCF10A cells", "type": "cell-based", "settings": "4 hr treatment, cell lysates, FIG. 6A", "protocol": "as §1"}, "[3]": {"tested_on": "O-GlcNAcylated p53 in MCF-7 cells", "assay": "Western blot of O-GlcNAcylated p53 levels in MCF-7 cells", "type": "cell-based", "settings": "MCF-7, 24 hr, 2 mM, cytosol-containing supernatants, FIG. 7B", "protocol": "MCF-7 cells were grown for 24 hr with treatment of 1% DMSO (negative control) or 2 mM STZ or acetazolamide dissolved in DMSO or 2 mM N6-methyladenosine 5′-monophosphate dissolved in media. The cells were harvested and cytosol-containing supernatants were obtained."}, "[4]": {"tested_on": "unmodified c-myc in MCF-7 cells", "assay": "Western blot of unmodified c-myc in MCF-7 cells", "type": "cell-based", "settings": "MCF-7, 4 hr, 2 mM, antibody Peptide #2-N", "protocol": "as §2"}, "[5]": {"tested_on": "MCF-7 and MCF10A cells", "assay": "Lactate dehydrogenase (LDH) cytotoxicity assay", "type": "cell-based", "settings": "2 mM, 4 hr, LDH release", "protocol": "Increased O-GlcNAcylated c-myc levels in MCF-7 cells induced cell death. MCF-7 tumor cell death after 2 mM ketoconazole treatment was compared with MCF10A normal cell death by LDH cytotoxicity assay. After treatment of cells for 4 hr, extracellular media and Triton X-100 solubilized cells were obtained and oxidation of NADH to NAD+ in both fractions was monitored for 2 min at a 340 nm to obtain total (media+cells) LDH release."}, "[6]": {"tested_on": "HT29 colon cancer cells", "assay": "Cell proliferation assay (MTT)", "type": "cell-based, human", "description": "(§3) […] The cell number was counted after staining the cells with 3-(4,5-dimethylthiazol-2-yl)2,5-diphenyl-tetrazolium bromide (MTT)."}, "[7]": {"tested_on": "SW480 colon cancer cells", "assay": "Cell proliferation assay (MTT)", "type": "cell-based, human", "description": "as §3"}, "[8]": {"tested_on": "A549 lung cancer cells", "assay": "Cell proliferation assay (MTT)", "type": "cell-based", "settings": "Homo sapiens, A549, 50 μM for 72 hr", "protocol": "(§4) Cell proliferation assays were carried out after seeding 3,000-5,000 cells in a 96-well plate with and without treatment of 50 μM ketoconazole dissolved in DMSO (final concentration, 1%) for 72 hr (FIG. 8, Panel A). The cell number was counted after staining the cells with 3-(4,5-dimethylthiazol-2-yl)2,5-diphenyl-tetrazolium bromide (MTT)."}, "[9]": {"tested_on": "H1437 lung cancer cells", "assay": "Cell proliferation assay (MTT)", "type": "cell-based", "settings": "Homo sapiens, NCI-H1437, H1437, 50 μM for 72 hr", "protocol": "as §4"}, "[10]": {"tested_on": "Mia Paca-2 pancreatic cancer cells", "assay": "Cell proliferation assay (MTT)", "type": "cell-based", "settings": "Homo sapiens, Mia Paca-2, 50 μM for 72 hr", "protocol": "as §4"}, "[11]": {"tested_on": "PANC1 cells", "assay": "Cell proliferation assay (MTT)", "type": "cell-based", "settings": "PANC1, same treatments, 72 hr", "protocol": "as §4"}, "[12]": {"tested_on": "MCF-7 breast cancer cells", "assay": "Cell proliferation", "type": "cell-based", "protocol": "as §4"}, "[13]": {"tested_on": "HT29 colon cancer cells", "assay": "QCM ECMatrix cell invasion assay", "type": "cell-based, human", "settings": "HT29, 100 μM, 72 hr", "protocol": "(§5) Cell invasiveness of SW480 and HT29 human colon adenocarcinoma cells and MCF10CA1A breast cancer cells with and without 72 hr treatment with 100 μM ketoconazole was studied in 24-well plates using the QCM ECMatrix cell invasion assay kit (EMD Millipore)."}, "[14]": {"tested_on": "SW480 colon cancer cells", "assay": "QCM ECMatrix cell invasion assay", "type": "cell-based, human", "settings": "SW480, 100 μM, 72 hr", "protocol": "as §5"}, "[15]": {"tested_on": "MCF10CA1A breast cancer cells", "assay": "QCM ECMatrix cell invasion assay", "type": "cell-based", "settings": "100 μM, 72 hr", "protocol": "as §5"}, "[16]": {"tested_on": "Mia Paca-2 pancreatic cancer cells", "assay": "Wound healing assay (cell migration)", "type": "cell-based", "settings": "Mia Paca-2, 100 μM", "protocol": "(§6) Wound healing assays were also carried out to verify inhibition of cell migration after ketoconazole treatment."}, "[17]": {"tested_on": "PANC1 pancreatic cancer cells", "assay": "Wound healing assay (cell migration)", "type": "cell-based", "settings": "PANC1, 100 μM", "protocol": "as §6"}, "[18]": {"tested_on": "HT29 colon cancer cells", "assay": "Wound healing assay (cell migration)", "type": "cell-based, human", "settings": "HT29, 100 μM", "protocol": "as §6"}, "[19]": {"tested_on": "SW480 colon cancer cells", "assay": "Wound healing assay (cell migration)", "type": "cell-based, human", "settings": "SW480, 100 μM", "protocol": "as §6"}, "[20]": {"tested_on": "Thr-58-O-GlcNAcylated c-myc in PANC-1 cells", "assay": "Thr-58-O-GlcNAcylated c-myc expression in PANC-1 cells", "type": "cell-based", "settings": "PANC-1, after ketoconazole treatment"}, "[21]": {"settings": "MCF-7, 24 hr treatment, 2 mM, nuclear lysates, FIG. 5"}, "[22]": {"settings": "MCF-7, 4 hr treatment, cell lysates, FIG. 6A"}, "[23]": {"settings": "2 mM, nuclear lysates, antibody Peptide #2-G, FIG. 6B"}}, "note": "“Also recorded” adds a separate entry of the source."}
{"smiles": "CN(N=O)C(=O)N[C@H]1C(O)O[C@H](CO)[C@@H](O)[C@@H]1O", "note": "(mixture of isomers) [STZ, streptozotocin]", "values": [{"measurement": "O-GlcNAcylated c-myc levels", "setting": "[1]; [21]", "value": "failed to increase"}]}
{"smiles": "CNc1ncnc2c1ncn2[C@@H]1O[C@H](COP(=O)(O)O)[C@@H](O)[C@H]1O", "note": "[N6-methyladenosine 5′-monophosphate]", "values": [{"measurement": "O-GlcNAcylated c-myc levels", "setting": "[1]; [22]", "value": "failed to increase"}, {"measurement": "O-GlcNAcylated c-myc levels", "setting": "[1]; [21]", "value": "failed to increase"}, {"measurement": "O-GlcNAcylated c-myc levels", "setting": "[2]", "value": "failed to increase"}, {"measurement": "Levels of O-GlcNAcylated p53", "setting": "[3]", "value": "increased"}]}
{"smiles": "CC(=O)Nc1nnc(S(N)(=O)=O)s1", "note": "[acetazolamide]", "values": [{"measurement": "O-GlcNAcylated c-myc levels", "setting": "[1]; [22]", "value": "failed to increase"}, {"measurement": "O-GlcNAcylated c-myc levels in nucleus", "setting": "[1]; MCF-7, 24 hr, 2 mM, data not shown", "value": "did not increase"}, {"measurement": "O-GlcNAcylated c-myc levels", "setting": "[2]", "value": "failed to increase"}, {"measurement": "Levels of O-GlcNAcylated p53", "setting": "[3]", "value": "increased"}]}
{"smiles": "O=C1CC2(CCCC2)CC(=O)N1CCCCN1CCN(c2ncccn2)CC1", "note": "[buspirone]", "values": [{"measurement": "O-GlcNAcylated c-myc level", "setting": "[1]; [23]", "value": "did not increase"}]}
{"smiles": "CC(=O)N1CCN(c2ccc(OCC3COC(Cn4ccnc4)(c4ccc(Cl)cc4Cl)O3)cc2)CC1", "note": "(stereo not shown) [ketoconazole]", "values": [{"measurement": "O-GlcNAcylated c-myc level", "setting": "[1]; [23]", "value": "dramatically increased"}, {"measurement": "O-GlcNAcylated c-myc level", "setting": "[1]; 2 mM, second antibody Peptide #1-G, FIG. 6C", "value": "dramatically increased"}, {"measurement": "unmodified c-myc protein", "setting": "[4]", "value": "no increase"}, {"measurement": "increased cell death in MCF-7 cells higher than in MCF10A cells", "setting": "[5]", "value": 84, "unit": "%"}, {"measurement": "cell proliferation", "setting": "[6]; HT29, 100 μM", "value": "inhibited"}, {"measurement": "inhibition at 50 µM", "setting": "[6]; Homo sapiens, HT-29, HT29, 50 μM for 72 hr, MTT", "value": 67.4, "unit": "%"}, {"measurement": "inhibition at 50 µM", "setting": "[7]; Homo sapiens, SW480, 50 μM for 72 hr, MTT", "value": 63.3, "unit": "%"}, {"measurement": "cell proliferation", "setting": "[7]; SW480, 100 μM", "value": "inhibited"}, {"measurement": "inhibition at 50 µM", "setting": "[8]", "value": 51.3, "unit": "%"}, {"measurement": "inhibition at 50 µM", "setting": "[9]", "value": 44.9, "unit": "%"}, {"measurement": "inhibition at 50 µM", "setting": "[10]", "value": 60.2, "unit": "%"}, {"measurement": "inhibition of cell proliferation", "setting": "[11]", "value": "failed to inhibit; also recorded: no significant differences"}, {"measurement": "proliferation of MCF-7 breast cancer cells", "setting": "[12]", "value": "inhibited"}, {"measurement": "cell invasiveness", "setting": "[13]", "value": "loss of cell invasiveness"}, {"measurement": "inhibition at 100 µM", "setting": "[13]; Homo sapiens, HT-29, read-out: inhibition of migration in cell invasion assay", "value": 100, "unit": "%"}, {"measurement": "inhibition at 100 µM", "setting": "[14]; Homo sapiens, read-out: inhibition of migration in cell invasion assay", "value": 100, "unit": "%"}, {"measurement": "cell invasiveness", "setting": "[14]", "value": "loss of cell invasiveness"}, {"measurement": "cell invasiveness", "setting": "[15]", "value": "partially inhibited"}, {"measurement": "cell invasiveness", "setting": "[15]; listed as Ketoconazole", "value": "slight loss of cell invasiveness"}, {"measurement": "inhibition at 100 µM", "setting": "[16]; Homo sapiens, 24 and 48 hr, (36/46 × 100) and (43/55 × 100)", "value": 78, "unit": "%"}, {"measurement": "% cells migrated toward a scratched field", "setting": "[16]; 0 hr", "value": 0, "unit": "%"}, {"measurement": "% cells migrated toward a scratched field", "setting": "[16]; 24 hr", "value": 11.6, "unit": "%"}, {"measurement": "% cells migrated toward a scratched field", "setting": "[16]; 24 hr, listed as Ketoconazole", "value": 10, "unit": "%"}, {"measurement": "% cells migrated toward a scratched field", "setting": "[16]; 48 hr", "value": 12, "unit": "%"}, {"measurement": "inhibition of cell migration", "setting": "[17]", "value": "no significant differences"}, {"measurement": "% cells migrated toward a scratched field", "setting": "[17]; 0 hr", "value": 0, "unit": "%"}, {"measurement": "% cells migrated toward a scratched field", "setting": "[17]; 24 hr", "value": 6, "unit": "%"}, {"measurement": "% cells migrated toward a scratched field", "setting": "[17]; 48 hr", "value": 11, "unit": "%"}, {"measurement": "Percent of cells migrated toward a scratched field", "setting": "[18]; 0 hr", "value": 0, "unit": "%"}, {"measurement": "Percent of cells migrated toward a scratched field", "setting": "[18]; 24 hr", "value": 8, "unit": "%"}, {"measurement": "Percent of cells migrated toward a scratched field", "setting": "[19]; 0 hr", "value": 0, "unit": "%"}, {"measurement": "Percent of cells migrated toward a scratched field", "setting": "[19]; 24 hr", "value": 27, "unit": "%"}, {"measurement": "Thr-58-O-GlcNAcylated c-myc expression", "setting": "[20]", "value": "failed to increase"}]}
